We go through nine compounds from paper PMC7878295 (Gastroenterology, 2020).

Series [1] concerns human liver organoid (HLO). The settings on record: 72 h.
The subject of series [2] is human liver organoid (HLO).
Series [3] deals with CYP2C9*2 carrier and non-carrier HLO. Format: cell-based, human.
Series [4] concerns lipotoxic HLO. Kind of series: Viability in lipotoxic. Format: cell-based.
Series [5] deals with BSEP. Briefly: CLF bile acid transport in HLO. Format: cell-based, human. The settings on record: normal HLO, viable dosing (100 μM, 200 μM).
Series [6] relates to CYP1A2. Briefly: CYP1A2 induction in HLO.
Series [7] in a line: Organoid viability after treatment with training compounds. As to conditions: human, human liver organoids (HLO).
The test system of series [8] is human liver organoid (HLO). Kind of series: Mitochondrial membrane potential. As to conditions: treatment for 24h, multiple doses.

The structures appear in SMILES notation. Like-named read-outs stand apart in the source and are kept apart here.

As for `CC(c1cc2ccccc2s1)N(O)C(N)=O` (stereo not drawn) [Zileuton], in series [1], the “concentration at which induced toxicity was detected in cytotoxicity assay” value stood at 100 µM.
Take `Cc1c(C)c2c(c(C)c1O)CCC(C)(COc1ccc(CC3SC(=O)NC3=O)cc1)O2` (stereo not drawn) [Troglitazone]: the “cell viability at 72 hours relative to TOL, DICLO and BOS” value in series [2] is recorded as “significantly lowered cell viability”.
`COc1ccccc1Oc1c(NS(=O)(=O)c2ccc(C(C)(C)C)cc2)nc(-c2ncccn2)nc1OCCO` [Bosentan]: the “Positive rate of impaired CLF excretion” value in series [3] (CC genotype (CYP2C9 enzyme activity normal) HLO) is reported as 17.1 % of positive; in series [3] (CT genotype (CYP2C9*2, activity intermediate) HLO) it was 70.8 % of positive.
On to `CCc1ccc(CCOc2ccc(CC3SC(=O)NC3=O)cc2)nc1` (stereo not drawn) [Pioglitazone], for which the “effect on viability” value in series [4] (200 μM, 24h, HLO with/without lipotoxic condition) was “did not affect viability”.
For `Cc1cc2c(cc1CC(=O)c1sccc1S(=O)(=O)Nc1onc(C)c1Cl)OCO2` [sitaxentan], in series [5], the “CLF transport” value is on record as “inhibited CLF transport”.
On to `COc1ccc2c(c1)c(CC(=O)O)c(C)n2C(=O)c1ccc(Cl)cc1` [Indomethacin], for which the “concentration at which induced toxicity was detected in cytotoxicity assay” value in series [1] amounted to 10 µM.
Consider `COc1ccc2[nH]c([S+]([O-])Cc3ncc(C)c(OC)c3C)nc2c1` (stereo not drawn) [Omeprazol, Omeprazole], for which the “CYP1A2 induction response” value in series [6] was “major CYP induction responses in HLO”.
In series [7], `CCN(CC)C(=O)/C(C#N)=C/c1cc(O)c(O)c([N+](=O)[O-])c1` [Entacapone] had a viability at 24 h, 130 µM of 85% and a viability at 72 h, 130 µM of 64%. Moreover, in series [8], the “increase in MMP” value is on record as “increases in MMP were not clearly observed”.
As for `CC(=O)N[C@@H](CS)C(=O)O` [NAC, N-acetylcysteine], the “rescue of cell viability” value in series [4] (lipotoxic HLO treated with Troglitazone) is listed as “cell viability was significantly improved”.
